For one molecule, IC50 results are on record in publication PMC11544189 (Acta Pharmaceutica Sinica. B, 2024).

This assay concerns σ1 receptor. The assay can be described thus: σ[…] protein/BiP dissociation assay. It counts as cell-based.

In the case of `CSC(=S)NCCNC(=O)CCC(=O)Nc1cccc2ccccc12` [Amylovis-201, Methyl (2-{[4-(1-naphthylamino)-4-oxobutanoyl]amino}ethyl)dithiocarbamate], the IC50 is 362 nM.
